Test results: patent publication US6218384A, “3-Oxo-pyrido(1,2-a)benzimidazole-4-carboxyl and 4-oxo-azepino(1,2-a)benzimidazole-5-carboxyl derivatives useful in treating central nervous system disorders” (Ortho-McNeil Pharmaceutical, Inc., priority 1997, dated 2001)
Like-named read-outs stand apart in the source and are kept apart here.

Experiments:
[1] = Suppression of anxiety (punished licking, conflict test) in the adult male rat; format: in vivo, male rats
Procedure: The anxiolytic activity of selected compounds of the invention was assessed by determining their ability to release (disinhibit) behavior that had been suppressed by punishment (Vogel, J. R. et al. Psychopharmacology 1971, 21, 1). Male rats were deprived of water for 48 hours and were deprived of food for 24 hours prior to testing. After the first 24 hours of water deprivation, they were placed in the conflict chamber for a training period; wherein, they were allowed 200 unpunished licks from a bottle containing tap water. The experiment was run the next day. At the expected time of peak activity, the animals were placed in the chamber and allowed access to tap water. […] Their first lick initiates a 3-min test session. Subsequently,every 20th lick was punished by a 0.2-s shock delivered via the stainless-steel drinking-tube. Vehicle-treated control animals generally were willing to accept a median number of 3 to 8 shocks per test session. […] The Wilcoxon rank-sum test (Mann-WhitneyU-test) was used to test for an increase (p<0.05, 1-tailed) in the median number of shocks in drug-treated groups, compared to a concurrently run vehicle-treated group. The biological assay is considered to be valid if the effects of a known anxiolytic (positive control) are detected, within the same experiment. A compound was considered active if there is a significant difference in the median number of shocks tolerated between the drug-treated group and the control group. The MED was defined as the minimum dose of the drug-treatment as analyzed using the Wilcoxon rank-sum test (SAS; Statistical Analysis System, version 5.16). If the MED value is greater than 10, an active dose of the compound being tested had not been determined.

[2] = molecular target: benzodiazepine site of the GABA-A receptor; assay: Benzodiazepine Receptor Binding Assay (inhibition of 3H-flunitrazepam binding); details: ca. 3 nM 3H-flunitrazepam
[3] = Suppression of metrazol-induced convulsions; format: in vivo, male CD1 mice; details: mice; for ED50: Mus musculus, 0.5 h
Procedure: Selected compounds of the invention were tested for their ability to reduce metrazol-induced convulsions in mice (Swinyard, E. A. J. Am. Pharm Assoc. 1949, 38, 201). Male CD1 mice, were fasted at least 16 hours, were divided into equal groups and test compounds or vehicle were administered parenterally. Water was not withheld except during the period of observations. At the time of suspected peak activity, anti-pentylenetetrazol (anti-metrazol) activity was evaluated by the subcutaneous administration of the CD90 dose of metrazol (the dose of metrazol was determined from the dose-response curve producing clonic convulsions in 90% of animals that received the corresponding vehicle for this experiment). Metrazol was dissolved in 0.9% sodium chloride solution, and its dose volume was 10 ml/kg. Animals were housed individually for observation of clonic convulsions, tonic convulsions and death for a period of 30 min. Test compounds that blocked the clonic seizure component of the convulsion in at least 50% of the animals were considered active. The biological assay was considered to be valid if the effects of a known anticonvulsant (positive control) were detected, within the same experiment. Activity was reported as percent reduction of clonic convulsions from the vehicle group. The ED50 values of active compounds were calculated by the method of probits (Finney, D. J. 1971. Probit Analysis. London: Cambridge University Press) and are listed in Tables 1 to 5.

[4] = Table 1, ip, minimum effective dose, >10 = active dose not determined, read-out: Conflict (ip) MED
[5] = Table 1, 25° C., 10-20 min, >10,000 = not active
[6] = Table 1, ip, clonic convulsions after sc CD90 metrazol, >30 = active dose not determined, read-out: Metrazol (ip) ED50
[7] = Table 5, minimum effective dose, read-out: Conflict MED
[8] = Table 5, parenteral, clonic convulsions, read-out: Antimetrazol ED50

Row | Molecule | minimal effective dose [1, 4] | IC50 [2, 5] | ED50 [3, 6] | further results
1 | O=C1CCN2C(=C1C(=O)Nc1c(Cl)c(F)nc(F)c1Cl)Nc1ccccc12 [compound 67] | 10 mg/kg | 10000 nM | 10 mg/kg | 
2 | O=C1CCCN2C(=C1C(=O)Nc1ccc(F)cc1F)Nc1ccccc12 [compound 155] |  |  |  | minimal effective dose [1, 7]: > 10 mg/kg; IC50 ([2]; Table 5): 39 nM; ED50 [3, 8]: 10 mg/kg
3 | O=C1CCCN2C(=C1C(=O)Nc1ccc(F)cc1F)N(Cc1ccccc1)c1ccccc12 [compound 156] |  |  |  | minimal effective dose [1, 7]: > 10 mg/kg; IC50 ([2]; Table 5): 330 nM; ED50 [3, 8]: > 10 mg/kg
4 | O=C1CCN2C(=C1C(=O)Nc1ccc(Br)cc1)Nc1ccccc12 [compound 44] | > 10 mg/kg | 130 nM | 3 mg/kg | 
5 | CCN(CC)c1ccc(NC(=O)C2=C3Nc4ccccc4N3CCC2=O)cc1 [compound 71] | > 10 mg/kg | 1800 nM | 3 mg/kg | 
6 | Phenyl-1,2-dihydro-3-hydroxypyrido(1,2-a)benzimidazole-4-carboxylate [CP 118] |  | 41 nM |  | Conflict (ip) MED ([1]; Table 1, ip, minimum effective dose, >10 = active dose not determined): 10 mg/kg; Metrazol (ip) ED50 ([3]; Table 1, ip, clonic convulsions after sc CD90 metrazol, >30 = active dose not determined, 30 min): 3 mg/kg
7 | O=C1CCN2C(=C1C(=O)NCc1cccnc1)Nc1ccccc12 [compound 62] | > 10 mg/kg | 155 nM | > 10 mg/kg | 
8 | NC(=O)C1=C2Nc3ccccc3N2CCC1=O [compound 29] | 10 mg/kg | 2400 nM | > 3 mg/kg | 
9 | CN1C2=C(C(=O)Nc3ccncc3)C(=O)CCCN2c2ccccc21 [compound 153] |  |  |  | minimal effective dose [1, 7]: > 10 mg/kg; IC50 ([2]; Table 5): 2600 nM; ED50 [3, 8]: > 10 mg/kg
10 | O=C1CCN2C(=C1C(=S)Nc1ccccc1)Nc1ccccc12 [compound 117] |  |  |  | minimal effective dose ([1]; Table 2, ip, minimum effective dose, read-out: Conflict (ip) MED): > 10 mg/kg; IC50 ([2]; Table 2): 360 nM; ED50 ([3]; Table 2, ip, clonic convulsions, read-out: Antimetrazol (ip) ED50): > 10 mg/kg
11 | Cc1cccc2c1NC1=C(C(=O)Nc3ccccc3F)C(=O)CCN12 [compound 94] | < 10 mg/kg | 96 nM | 1 mg/kg | 
12 | CN1C2=C(C(=O)Nc3ccncc3)C(=O)CCN2c2ccccc21 [compound 126] |  |  |  | minimal effective dose ([1]; Table 3, minimum effective dose, read-out: Conflict MED): < 10 mg/kg; IC50 ([2]; Table 3): 230 nM; ED50 ([3]; Table 3, parenteral, clonic convulsions, read-out: Antimetrazol ED50): 3 mg/kg
13 | Nc1ccc(NC(=O)C2=C3Nc4ccccc4N3CCC2=O)cc1 [compound 18] | > 10 mg/kg | 13000 nM | 3 mg/kg | 
14 | O=C1CCN2C(=C1C(=O)Nc1ccc(C(=O)O)cc1)Nc1ccccc12 [compound 28] | 10 mg/kg | > 10000 nM | > 30 mg/kg | 
15 | CC(C)NC(=O)C1=C2Nc3ccccc3N2CCC1=O [compound 105] | > 10 mg/kg | 46 nM | > 10 mg/kg | 
16 | CN(C)CCc1ccc(NC(=O)C2=C3Nc4ccccc4N3CCC2=O)cc1 [compound 115] | 30 mg/kg | 110 nM | > 30 mg/kg | 
17 | CCOC(=O)c1ccc(NC(=O)C2=C3Nc4ccccc4N3CCC2=O)cc1 [compound 27] | < 10 mg/kg | > 10000 nM | > 30 mg/kg | 
18 | O=C1CCCN2C(=C1C(=O)Nc1ccccc1F)N(Cc1ccccc1)c1ccccc12 [compound 148] |  |  |  | minimal effective dose [1, 7]: > 10 mg/kg; IC50 ([2]; Table 5): 150 nM; ED50 [3, 8]: > 10 mg/kg
19 | CSc1ccccc1NC(=O)C1=C2Nc3ccccc3N2CCC1=O [compound 40] | > 10 mg/kg | 720 nM | > 10 mg/kg | 
20 | CN(C)c1ccc(NC(=O)C2=C3Nc4ccccc4N3CCCC2=O)cc1 [compound 149] |  |  |  | minimal effective dose [1, 7]: > 10 mg/kg; IC50 ([2]; Table 5): 1120 nM; ED50 [3, 8]: > 10 mg/kg
21 | COc1ccc2c(c1)NC1=C(C(=O)Nc3ccncc3)C(=O)CCN12 [compound 57] | > 10 mg/kg | 500 nM | > 10 mg/kg | 
